Laboratory results reported in US20180235934A1, “NORADRENERGIC DRUG TREATMENT OF OBSTRUCTIVE SLEEP APNEA” (Massachusetts Institute of Technology, priority 2015, published 2018).

Columns and labels:
healthy subjects = conditions: cited from earlier work
[1] = system: TH-cre transgenic Sprague-Dawley rats; assay: Episodic optogenetic stimulation of A7 neurons, HM activity and hLTF; conditions: 0.5 mg/kg i.v.
[2] = system: urethane-anesthetized rats; assay: Hypoglossal nerve activity and hLTF under carbachol (cholinergic)-induced REM sleep-like state with episodic airway occlusion; assay type: in vivo, rat
From the text: (§1) The EMGs were amplified (CyberAmp 380, Axon Instruments, Union City), integrated (time constant 0.1 s, MA821 RSP Moving Averager, CWE) and sampled at 10 KHz into a Dell PC with LabView software (National Instruments, Austin, Tex.).
A REM sleep-like state in urethane-anesthetized rats was induced by microinjection of the cholinergic agonist carbachol at unilateral dorsomedial pons^1,14 and was detected by the decrease of hypoglossal/GG EMG activity and the appearance of hippocampal theta discharge. The latter was recorded by using a parallel bipolar wire electrode inserted into the hippocampal CA1 region at the following stereotaxic coordinates: 3.7 mm caudal from Bregma, 2.2 mm lateral from midline, and depth of 2.4 mm from brain surface.
(§2) Recurrent obstructive apneas during spontaneous breathing in urethane-anesthetized rats were simulated by applying 10 or 12 episodes of airway occlusion at one episode per min.
(§3) All values are expressed as mean±SE.

[3] = system: urethane-anesthetized rats; assay: Hypoglossal nerve activity and hLTF under spontaneous REM sleep with episodic airway occlusion; assay type: in vivo, rat
Description: as §2, §3
Experiments were performed on 5 adult male rats (body weight 270-550 g) under urethane anesthesia, pancuronium paralysis and artificial ventilation. Unlike other anesthetics, urethane anesthesia retains the sleep-like alternations in brain state and in breathing pattern and chemosensitivity similar to those seen in natural sleep^58-59 (including state-dependent modulations of GG and abdominal respiratory-related activities^40), while also circumventing the highly fragmented natural sleep pattern in rodents^40. As shown in FIGS. 12A-12B, during periods of REM-like sleep (as indicated by increased hippocampal activity) hypoglossal nerve discharge was markedly depressed (by 44.8±9.1%, P<0.01). […] In addition, episodic end-expiratory airway occlusion (lasting 15 seconds each, 1 episode per minute; FIG. 12A, arrows) caused marked time-dependent increases in the amplitude of hypoglossal nerve discharge during each airway occlusion episode.

[4] = system: urethane-anesthetized rats; assay: Hypoglossal amplitude and obstructive apnea-induced hLTF after yohimbine, focal at bilateral A7 and A5 regions or intravenous (no REM induction); assay type: in vivo, rat
From the text: Recurrent obstructive apneas during spontaneous breathing in urethane-anesthetized rats were simulated by applying 10 or 12 episodes of airway occlusion at one episode per min. […] All values are expressed as mean±SE.

[5] = clinically recommended dose range; cited from earlier work
[6] = system: urethane-anesthetized spontaneously breathing rats
Description: All experimental protocols were reviewed and approved by the responsible Committee on Animal Care in accordance with published guidelines. Experiments were performed on 45 male adult Sprague-Dawley rats (300-400 g, Charles River Laboratories, Wilmington, Mass.) under urethane anesthesia (initial dose 1.5 g/kg, i.p.; supplemental dose 1/10 of initial dose, i.p. or i.v. when necessary). The femoral vein and artery were cannulated for intravenous infusion and blood pressure monitoring, respectively. Rectal temperature was maintained at 36.5-37.5° C. with a thermostatic heating pad.
After sub-laryngeal tracheal cannulation with a Y-shaped tracheal cannula, two isolated silver wires (O.D. 0.127 mm) were implanted into the genioglossus and diaphragm for EMG recording. The wire tips were exposed for 1 mm and separated by approximately 5 mm once inserted into the muscle. In some rats, the medial branch of the hypoglossal nerve (which innervates the GG and other tongue protrusion muscles) and phrenic nerve (which innervates the diaphragm) were isolated and severed. After the rat was mounted onto the stereotaxic frame, the central end of the nerve was exposed from the back of the neck (dorsal approach) and mounted onto parallel bipolar wire electrodes for recording. These rats were artificially ventilated with oxygen-enriched (40% O2) medical air and paralyzed with pancuronium bromide.
as §1, with “Tex.). The recordings were stabilized for at least 1 hour before any data collection and experimental manipulations were performed.” for “Tex.).”
For brain microinjections, an occipital craniostomy was performed to expose the brain surface. A glass micropipette (tip O.D. 10-20 μm) filled with chemical solution was inserted to the target structure according to its stereotaxic coordinates. Injections (25-50 nl per injection) were performed by applying pressure pulses to the micropipette and confirmed by the movement of the intrapipette solution meniscus. All chemicals were purchased from Sigma-Aldrich (Sigma, St. Louis, Mo.) and dissolved in ACSF at concentration of 10 mM. Stereotaxic coordinates of the A7 region: 2.3-2.6 mm from midline, 0-0.5 mm rostral from interaural level, 8.0-8.5 mm from lambda surface; A5 region: 0-0.5 mm caudal from interaural level, 2.2-2.7 mm from midline, 9.5-10 mm from lambda surface; dorsomedial pons: 1-1.5 mm from midline, 0.2-0.7 mm rostral from interaural level, 7.5-8.5 mm from lambda surface.
Recurrent obstructive apneas during spontaneous breathing in urethane-anesthetized rats were simulated by applying 10 or 12 episodes of airway occlusion at one episode per min. Each episode of airway occlusion started from the end of an expiration (in spontaneous breathing rats as described in Tadjalli et al., J Neurosci 30, 16886-16895 (2010)^5) or lung deflation (in ventilated rats) and lasted 10-12 sec. […]
The amplitudes of the integrated genioglossus EMG (or hypoglossal nerve discharge) and integrated diaphragm EMG (or phrenic nerve discharge) recordings in each respiratory cycle were measured and normalized to the control baseline values. All values are expressed as mean±SE. […]

[7] = intravenous 0.5 mg/kg, n=5, vs control n=12
[8] = injection at bilateral A7 region

Structure (SMILES): CNCCCN1c2ccccc2CCc2ccccc21 [desipramine]
- tonic component of GG activity (healthy subjects; healthy subjects, non-REM sleep): increased the tonic component of GG activity
- inspiratory-phasic component of GG activity (healthy subjects; healthy subjects): failed to increase the inspiratory-phasic component of GG activity
- effect on REM sleep (healthy subjects; in vivo): inhibit REM sleep

Structure (SMILES): COc1cc2nc(N3CCN(C(=O)c4ccco4)CC3)nc(N)c2cc1OC [prazosin]
- HM activity [1]: decreased
- hLTF after episodic optogenetic stimulation of A7 neurons [1]: no longer resulted in hLTF

Structure (SMILES): COC(=O)[C@@H]1[C@H]2C[C@H]3c4[nH]c5ccccc5c4CCN3C[C@@H]2CC[C@@H]1O [yohimbine, Yohimbine]
- baseline HM activity ([2]; systemic yohimbine 0.5-1.0 mg/kg i.v., cholinergic-induced REM sleep, n=7, P<0.01): rise of baseline HM activity above the control level
- obstructive apnea-induced hLTF ([2]; systemic yohimbine 0.5-1.0 mg/kg i.v., cholinergic-induced REM sleep, up to 20 min after episodic obstructive apnea): potently reversed the blunting of obstructive apnea-induced hLTF
- dose that effectively rescued first- and second-line motor defenses against OSA under REM sleep ([3]; i.v., rats, REM sleep): > 0.25 mg/kg
- baseline HM activity ([4]; focal injection at bilateral A7 and A5 regions (50 nl at 2.5 mM per site), n=5, P<0.01): significant increase of baseline HM activity
- hLTF during obstructive apnea episodes and up to 20 min afterwards ([4]; focal injection at bilateral A7 and A5 regions, P<0.05): enhancement of hLTF
- baseline hypoglossal amplitude before episodic airway occlusion [4, 7]: augmented baseline hypoglossal amplitude
- hypoglossal amplitude during first and last airway occlusion episodes and 5 and 20 min after [4, 7]: facilitated hypoglossal amplitude
- effect on REM sleep [5]: does not disrupt REM sleep
- weight gain [5]: does not disrupt REM sleep or cause weight gain

Structure (SMILES): CC1c2ccccc2CN1CC1=NCCN1 (stereo not shown) [BRL44408, 2-[2H-(1-Methyl-1,3-dihydroisoindole)methyl]-4,5-dihydroimidazole]
- hypoglossal discharge (baseline) during spontaneous REM-like sleep ([3]; 0.2 mg/kg i.v., 5 rats): effectively restored the hypoglossal discharge to normal baseline level
- hypoglossal activity before, during or after episodic airway occlusion ([3]; 0.2 mg/kg i.v., throughout spontaneous REM sleep): at or above normal baseline level

Structure (SMILES): C[N+](C)(C)CCOC(N)=O [carbachol]
- respiratory-related hypoglossal activity, decrease on transition to REM-like sleep ([2]; focal carbachol injection at pontine dorsomedial reticular formation, vagi-intact rats): ~39%

Structure (SMILES): Clc1cccc(Cl)c1N=C1NCCN1 [clonidine]
- tonic component of GG activity recruited during airway obstruction ([6]; application at bilateral A7 or A5 region): strongly suppressed
- baseline genioglossus activity ([6]; injection at bilateral A5 region, n=6): not significantly reduced
- facilitation of hypoglossal activity during airway occlusion [6, 8]: markedly attenuated
- hypoglossal long-term facilitation [6, 8]: totally abolished
- integrated genioglossus EMG amplitude, reduction from pre-injection baseline ([6]; injection at bilateral A7 region (~50 nl at 5 mM per site)): ~12%
